Experimental data: publication PMC8887546, “Design and Synthesis of Brain Penetrant Glycopeptide Analogues of PACAP With Neuroprotective Potential for Traumatic Brain Injury and Parkinsonism” (Frontiers in drug discovery, 2022)

Key:
Type in all cases: cell-based
human PAC1 receptor = molecular target: T1, human PAC1 receptor (Homo sapiens, UniProt P41586); experiment: cAMP stimulation in CHO cells expressing PAC1; conditions: for Emax: CHO
T1 construct: expressed in transfected cells; host or cells: CHO cells (G418 selection)
T1 sequence (P41586 21-468): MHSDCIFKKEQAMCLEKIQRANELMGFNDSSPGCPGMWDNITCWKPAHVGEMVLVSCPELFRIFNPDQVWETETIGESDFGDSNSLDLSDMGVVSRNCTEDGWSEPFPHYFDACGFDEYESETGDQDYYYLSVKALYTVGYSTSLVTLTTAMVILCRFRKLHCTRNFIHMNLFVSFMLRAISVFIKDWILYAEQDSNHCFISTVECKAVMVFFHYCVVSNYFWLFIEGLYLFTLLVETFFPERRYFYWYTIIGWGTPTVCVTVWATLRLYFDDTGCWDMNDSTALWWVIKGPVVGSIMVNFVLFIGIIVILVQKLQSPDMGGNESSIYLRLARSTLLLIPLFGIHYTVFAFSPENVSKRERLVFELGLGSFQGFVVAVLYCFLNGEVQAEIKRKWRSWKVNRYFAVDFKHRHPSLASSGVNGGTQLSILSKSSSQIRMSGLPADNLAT
Protocol: (§1) Briefly, human PAC1, VPAC1, and VPAC2 receptors expressed in CHO cells were used for all experiments. Cells were grown in 50:50 DMEM-F12 medium with 10% heat-inactivated fetal bovine serum, 1X penicillin-streptomycin supplement, and 500 μg/ml G418 (neomycin) to maintain selection (all from ThermoFisher) at 37°C with 5% CO2 atmosphere. For the cAMP assay, cells were seeded at 20,000 cells/well in a 96 well plate, recovered overnight, then serum starved for 4 h. The cells were then incubated with 500 μM IBMX for 20 min, followed by agonist concentration curves in 500 μM IBMX media for 10 min. The reaction was terminated, boiled, then collected, followed by competition with 7 μg of bovine protein kinase A (Sigma-Aldrich) and ∼1 pmol of ^3H-cAMP (PerkinElmer). The assay was incubated at room temp for 1 h, then collected onto GF/B filter plates and the data read using a MicroBeta2 scintillation counter (PerkinElmer).

human VPAC2 receptor = molecular target: T2, human VPAC2 receptor (Homo sapiens, UniProt P41587); experiment: cAMP stimulation in CHO cells expressing VPAC2; conditions: for Emax: CHO
T2 construct: expressed in transfected cells; host or cells: CHO cells (G418 selection)
T2 sequence (P41587 24-438): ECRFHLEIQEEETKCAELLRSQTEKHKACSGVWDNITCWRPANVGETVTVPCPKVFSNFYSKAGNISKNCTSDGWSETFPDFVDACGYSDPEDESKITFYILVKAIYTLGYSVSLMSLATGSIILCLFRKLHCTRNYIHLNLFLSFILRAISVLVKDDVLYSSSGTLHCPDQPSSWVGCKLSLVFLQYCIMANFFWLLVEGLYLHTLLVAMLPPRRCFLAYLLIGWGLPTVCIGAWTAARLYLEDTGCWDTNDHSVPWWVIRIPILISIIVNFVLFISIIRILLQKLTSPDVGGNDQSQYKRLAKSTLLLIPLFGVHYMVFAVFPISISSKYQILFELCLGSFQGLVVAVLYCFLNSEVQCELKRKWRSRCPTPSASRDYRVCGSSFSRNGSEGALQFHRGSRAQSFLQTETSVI
Protocol: as §1

human VPAC1 receptor = molecular target: T3, human VPAC1 receptor (Homo sapiens, UniProt P32241); experiment: cAMP stimulation in CHO cells expressing VPAC1; conditions: for Emax: CHO, read-out: VPAC1 Emax; for EC50: read-out: VPAC1 EC50
T3 construct: expressed in transfected cells; host or cells: CHO cells (G418 selection)
T3 sequence (P32241 31-457): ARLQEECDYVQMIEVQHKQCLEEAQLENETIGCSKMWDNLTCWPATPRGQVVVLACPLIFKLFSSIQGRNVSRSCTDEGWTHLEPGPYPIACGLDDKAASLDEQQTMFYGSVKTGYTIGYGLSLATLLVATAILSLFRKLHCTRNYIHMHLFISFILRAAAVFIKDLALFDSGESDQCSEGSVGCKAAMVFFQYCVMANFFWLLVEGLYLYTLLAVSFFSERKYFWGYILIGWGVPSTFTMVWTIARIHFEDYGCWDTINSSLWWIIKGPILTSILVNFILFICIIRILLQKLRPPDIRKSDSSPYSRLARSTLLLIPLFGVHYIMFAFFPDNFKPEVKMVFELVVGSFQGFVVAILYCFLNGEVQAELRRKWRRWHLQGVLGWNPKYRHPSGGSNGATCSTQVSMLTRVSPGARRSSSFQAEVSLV

EC50 (human PAC1 receptor) | Emax (human PAC1 receptor) | EC50 (human VPAC2 receptor) | Emax (human VPAC2 receptor) | Receptor selectivity ratio VPAC2/PAC1 (human VPAC2 receptor; ratio of cAMP EC50 values) | Receptor selectivity ratio VPAC2/VPAC1 (human VPAC2 receptor; ratio of cAMP EC50 values) | Emax (human VPAC1 receptor) | Receptor selectivity ratio VPAC1/PAC1 (human VPAC1 receptor; ratio of cAMP EC50 values) | EC50 (human VPAC1 receptor) | Compound
2.8 nM | 96% | 27.2 nM | 101% | 9.71 | 12.36 | 98% | 0.79 | 2.2 nM | CC[C@H](C)[C@H](NC(=O)CNC(=O)[C@H](CC(=O)O)NC(=O)[C@H](CO)NC(=O)[C@H](Cc1c[nH]cn1)NC(C)=O)C(=O)N[C@@H](Cc1ccccc1)C(=O)N[C@H](C(=O)N[C@@H](CC(=O)O)C(=O)N[C@@H](CO)C(=O)N[C@@H](Cc1ccc(O)cc1)C(=O)N[C@@H](CO)C(=O)N[C@@H](CCCNC(=N)N)C(=O)N[C@@H](Cc1ccc(O)cc1)C(=O)N[C@@H](CCCNC(=N)N)C(=O)N[C@@H](CCCCN)C(=O)N[C@@H](CCC(N)=O)C(=O)N[C@@H](CC(C)C)C(=O)N[C@@H](C)C(=O)N[C@H](C(=O)N[C@@H](CCCCN)C(=O)N[C@@H](CCCCN)C(=O)N[C@@H](Cc1ccc(O)cc1)C(=O)N[C@@H](CC(C)C)C(=O)N[C@@H](C)C(=O)N[C@@H](C)C(=O)N[C@H](C(=O)N[C@@H](CC(C)C)C(=O)N[C@@H](CO[C@@H]1O[C@H](CO)[C@@H](O[C@@H]2O[C@H](CO)[C@H](O)[C@H](O)[C@H]2O)[C@H](O)[C@H]1O)C(N)=O)C(C)C)C(C)C)[C@@H](C)O [Ac-2LS132]
 | 90% |  | 106% |  |  | 94% |  |  | CCC[C@H](NC(=O)[C@H](CCC(N)=O)NC(=O)[C@H](CCCCN)NC(=O)[C@H](CCCNC(=N)N)NC(=O)[C@H](Cc1ccc(O)cc1)NC(=O)[C@H](CCCNC(=N)N)NC(=O)[C@H](CO)NC(=O)[C@H](Cc1ccc(O)cc1)NC(=O)[C@H](CO)NC(=O)[C@H](CC(=O)O)NC(=O)[C@@H](NC(=O)[C@H](Cc1ccccc1)NC(=O)[C@@H](NC(=O)CNC(=O)[C@H](CC(=O)O)NC(=O)[C@@H](CO)NC(=O)[C@H](Cc1c[nH]cn1)NC(C)=O)[C@@H](C)CC)[C@@H](C)O)C(=O)N[C@@H](C)C(=O)N[C@H](C(=O)N[C@@H](CCCCN)C(=O)N[C@@H](CCCCN)C(=O)N[C@@H](Cc1ccc(O)cc1)C(=O)N[C@@H](CC(C)C)C(=O)N[C@@H](C)C(=O)N[C@@H](C)C(=O)N[C@H](C(=O)N[C@@H](CC(C)C)C(=O)N[C@@H](CO[C@@H]1O[C@H](CO)[C@@H](O)[C@H](O)[C@H]1O)C(N)=O)C(C)C)C(C)C [Ac-CRA3000]
 | 96% |  | 93% |  |  | 111% |  |  | CCC[C@H](NC(=O)[C@H](CCC(N)=O)NC(=O)[C@H](CCCCN)NC(=O)[C@H](CCCNC(=N)N)NC(=O)[C@H](Cc1ccc(O)cc1)NC(=O)[C@H](CCCNC(=N)N)NC(=O)[C@H](CO)NC(=O)[C@H](Cc1ccc(O)cc1)NC(=O)[C@H](CO)NC(=O)[C@H](CC(=O)O)NC(=O)[C@@H](NC(=O)[C@H](Cc1ccccc1)NC(=O)[C@@H](NC(=O)[C@@H](C)NC(=O)[C@H](CC(=O)O)NC(=O)[C@@H](CO)NC(=O)[C@H](Cc1c[nH]cn1)NC(C)=O)[C@@H](C)CC)[C@@H](C)O)C(=O)N[C@@H](C)C(=O)N[C@H](C(=O)N[C@@H](CCCCN)C(=O)N[C@@H](CCCCN)C(=O)N[C@@H](Cc1ccc(O)cc1)C(=O)N[C@@H](CC(C)C)C(=O)N[C@@H](C)C(=O)N[C@@H](C)C(=O)N[C@H](C(=O)N[C@@H](CC(C)C)C(=O)N[C@@H](CO[C@@H]1O[C@H](CO)[C@@H](O)[C@H](O)[C@H]1O)C(N)=O)C(C)C)C(C)C [Ac-CRA3021]
 | 86% |  | 114% |  |  | 99% |  |  | CCC[C@H](NC(=O)[C@H](CCC(N)=O)NC(=O)[C@H](CCCCN)NC(=O)[C@H](CCCNC(=N)N)NC(=O)[C@H](Cc1ccc(O)cc1)NC(=O)[C@H](CCCNC(=N)N)NC(=O)[C@H](CO)NC(=O)[C@H](Cc1ccc(O)cc1)NC(=O)[C@H](CO)NC(=O)[C@H](CC(=O)O)NC(=O)[C@@H](NC(=O)[C@H](Cc1ccccc1)NC(=O)[C@@H](NC(=O)CNC(=O)[C@H](CC(=O)O)NC(=O)[C@@H](CO)NC(=O)[C@H](Cc1c[nH]cn1)NC(C)=O)[C@@H](C)CC)[C@@H](C)O)C(=O)N[C@@H](C)C(=O)N[C@H](C(=O)N[C@@H](CCCCN)C(=O)N[C@@H](CCCCN)C(=O)N[C@@H](Cc1ccc(O)cc1)C(=O)N[C@@H](CC(C)C)C(=O)N[C@@H](C)C(=O)N[C@@H](C)C(=O)N[C@H](C(=O)N[C@@H](CC(C)C)C(=O)N[C@@H](CO[C@@H]1O[C@H](CO)[C@@H](O[C@@H]2O[C@H](CO)[C@H](O)[C@H](O)[C@H]2O)[C@H](O)[C@H]1O)C(N)=O)C(C)C)C(C)C [Ac-CRA 3000-Lac]
> 2500 nM | 35% | > 2500 nM | 31% |  |  | 36% |  | 415 nM | CCCC[C@H](NC(=O)CN(C)C(=O)[C@H](CC(=O)O)NC(=O)[C@@H](CO)NC(=O)[C@H](Cc1c[nH]cn1)NC(C)=O)C(=O)N[C@@H](Cc1ccccc1)C(=O)N[C@H](C(=O)N[C@@H](CC(=O)O)C(=O)N[C@@H](CO)C(=O)N[C@@H](Cc1ccc(O)cc1)C(=O)N[C@@H](CO)C(=O)N[C@@H](CCCNC(=N)N)C(=O)N[C@@H](Cc1ccc(O)cc1)C(=O)N[C@@H](CCCNC(=N)N)C(=O)N[C@@H](CCCCN)C(=O)N[C@@H](CCC(N)=O)C(=O)N[C@@H](CCC)C(=O)N[C@@H](C)C(=O)N[C@H](C(=O)N[C@@H](CCCCN)C(=O)N[C@@H](CCCCN)C(=O)N[C@@H](Cc1ccc(O)cc1)C(=O)N[C@@H](CC(C)C)C(=O)N[C@@H](C)C(=O)N[C@@H](C)C(=O)N[C@H](C(=O)N[C@@H](CC(C)C)C(=O)N[C@@H](CO[C@@H]1O[C@H](CO)[C@@H](O)[C@H](O)[C@H]1O)C(N)=O)C(C)C)C(C)C)[C@@H](C)O [Ac-CRA 3018]
1640 nM | 58% | > 2500 nM | 62% |  |  | 18% |  |  | CCCC[C@@H](NC(=O)CNC(=O)[C@H](CC(=O)O)NC(=O)[C@@H](CO)NC(=O)[C@H](Cc1c[nH]cn1)NC(C)=O)C(=O)N[C@@H](Cc1ccccc1)C(=O)N[C@H](C(=O)N[C@@H](CC(=O)O)C(=O)N[C@@H](CO)C(=O)N[C@@H](Cc1ccc(O)cc1)C(=O)N[C@@H](CO)C(=O)N[C@@H](CCCNC(=N)N)C(=O)N[C@@H](Cc1ccc(O)cc1)C(=O)N[C@@H](CCCNC(=N)N)C(=O)N[C@@H](CCCCN)C(=O)N[C@@H](CCC(N)=O)C(=O)N[C@@H](CCC)C(=O)N[C@@H](C)C(=O)N[C@H](C(=O)N[C@@H](CCCCN)C(=O)N[C@@H](CCCCN)C(=O)N[C@@H](Cc1ccc(O)cc1)C(=O)N[C@@H](CC(C)C)C(=O)N[C@@H](C)C(=O)N[C@@H](C)C(=O)N[C@H](C(=O)N[C@@H](CC(C)C)C(=O)N[C@@H](CO[C@@H]1O[C@H](CO)[C@@H](O)[C@H](O)[C@H]1O)C(N)=O)C(C)C)C(C)C)[C@@H](C)O [Ac-CRA 3019]
> 2500 nM | 61% | > 2500 nM | 71% |  |  | 36% |  | 244 nM | CCC[C@H](NC(=O)[C@H](CCC(N)=O)NC(=O)[C@H](CCCCN)NC(=O)[C@H](CCCNC(=N)N)NC(=O)[C@H](Cc1ccc(O)cc1)NC(=O)[C@H](CCCNC(=N)N)NC(=O)[C@H](CO)NC(=O)[C@H](Cc1ccc(O)cc1)NC(=O)[C@H](CO)NC(=O)[C@H](CC(=O)O)NC(=O)[C@@H](NC(=O)[C@H](Cc1ccccc1)NC(=O)[C@@H](CCC)NC(=O)CNC(=O)[C@H](CC(=O)O)NC(=O)[C@@H](CO)NC(=O)[C@H](Cc1c[nH]cn1)NC(C)=O)[C@@H](C)O)C(=O)N[C@@H](C)C(=O)N[C@H](C(=O)N[C@@H](CCCCN)C(=O)N[C@@H](CCCCN)C(=O)N[C@@H](Cc1ccc(O)cc1)C(=O)N[C@@H](CC(C)C)C(=O)N[C@@H](C)C(=O)N[C@@H](C)C(=O)N[C@H](C(=O)N[C@@H](CC(C)C)C(=O)N[C@@H](CO[C@@H]1O[C@H](CO)[C@@H](O)[C@H](O)[C@H]1O)C(N)=O)C(C)C)C(C)C [Ac-CRA 3020]
